Source: ChEMBL document CHEMBL3763046 (Bioorg Med Chem, 2016)

Key:
HT-29 [1] = assay: Cytotoxicity against human HT-29 cells after 72 hrs by MTT assay; conditions: HT-29, 72 h
[2] = target: Epidermal growth factor receptor (Homo sapiens, UniProt P00533); assay: Inhibition of EGFR (unknown origin) using poly(glu,Tyr)4:1 as substrate incubated for 30 mins by homogeneous time-resolved fluorescence assay
[3] = Cytotoxicity against human MKN45 cells after 72 hrs by MTT assay; conditions: MKN-45, 72 h
MDA-MB-231 = assay: Cytotoxicity against human MDA-MB-231 cells after 72 hrs by MTT assay; assay type: functional, cell-based; conditions: MDA-MB-231, 72 h
[4] = target: Macrophage-stimulating protein receptor (Homo sapiens, UniProt Q04912); assay: Inhibition of Ron (unknown origin) using poly(glu,Tyr)4:1 as substrate incubated for 30 mins by homogeneous time-resolved fluorescence assay
Sequence of Macrophage-stimulating protein receptor (Q04912 25-304 limits assumed): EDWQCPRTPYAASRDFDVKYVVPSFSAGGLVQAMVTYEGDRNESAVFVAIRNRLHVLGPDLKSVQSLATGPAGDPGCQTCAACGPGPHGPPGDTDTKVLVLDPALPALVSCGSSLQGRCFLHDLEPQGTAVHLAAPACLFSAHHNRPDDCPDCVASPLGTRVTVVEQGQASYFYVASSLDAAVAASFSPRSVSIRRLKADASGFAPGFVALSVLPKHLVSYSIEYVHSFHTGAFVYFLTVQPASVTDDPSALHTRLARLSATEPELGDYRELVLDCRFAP
Sequence of Macrophage-stimulating protein receptor (Q04912 310-1400 limits assumed): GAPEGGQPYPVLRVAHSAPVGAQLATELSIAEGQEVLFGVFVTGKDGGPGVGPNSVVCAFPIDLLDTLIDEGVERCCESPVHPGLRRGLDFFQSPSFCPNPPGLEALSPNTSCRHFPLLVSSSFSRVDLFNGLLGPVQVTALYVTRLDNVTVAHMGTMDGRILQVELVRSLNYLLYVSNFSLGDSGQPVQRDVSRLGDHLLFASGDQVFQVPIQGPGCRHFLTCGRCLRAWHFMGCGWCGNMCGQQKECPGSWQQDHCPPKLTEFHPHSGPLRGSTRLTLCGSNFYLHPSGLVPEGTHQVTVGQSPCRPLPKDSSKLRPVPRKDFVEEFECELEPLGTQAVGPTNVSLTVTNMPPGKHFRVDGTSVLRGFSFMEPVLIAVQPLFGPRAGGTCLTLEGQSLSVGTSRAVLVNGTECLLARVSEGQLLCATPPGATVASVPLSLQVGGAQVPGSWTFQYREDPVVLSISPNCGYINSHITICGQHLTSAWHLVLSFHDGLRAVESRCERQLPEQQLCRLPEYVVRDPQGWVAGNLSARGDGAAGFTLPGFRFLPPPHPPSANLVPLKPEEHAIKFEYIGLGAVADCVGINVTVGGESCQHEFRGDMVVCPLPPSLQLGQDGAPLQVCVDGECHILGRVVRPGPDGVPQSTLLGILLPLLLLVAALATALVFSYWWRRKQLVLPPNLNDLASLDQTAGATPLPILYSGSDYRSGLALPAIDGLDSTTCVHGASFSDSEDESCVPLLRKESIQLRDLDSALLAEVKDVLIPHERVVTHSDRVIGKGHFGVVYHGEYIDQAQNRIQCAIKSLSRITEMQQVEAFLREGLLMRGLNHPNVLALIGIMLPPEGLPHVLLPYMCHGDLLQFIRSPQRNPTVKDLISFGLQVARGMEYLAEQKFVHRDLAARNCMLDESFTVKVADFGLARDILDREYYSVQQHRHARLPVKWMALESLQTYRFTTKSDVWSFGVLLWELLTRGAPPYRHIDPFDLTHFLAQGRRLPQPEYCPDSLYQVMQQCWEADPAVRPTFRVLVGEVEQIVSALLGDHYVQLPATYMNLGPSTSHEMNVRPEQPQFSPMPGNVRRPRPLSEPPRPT

A549 [5] = assay: Cytotoxicity against human A549 cells after 72 hrs by MTT assay; assay type: functional, cell-based; conditions: A549, 72 h
PBL = assay: Cytotoxicity against human PBL cells after 72 hrs by MTT assay; assay type: cell-based
[6] = target: Vascular endothelial growth factor receptor 2 (Homo sapiens, UniProt P35968); assay: Inhibition of KDR (unknown origin) using poly(glu,Tyr)4:1 as substrate incubated for 30 mins by homogeneous time-resolved fluorescence assay
Sequence of Vascular endothelial growth factor receptor 2 (P35968 whole entry): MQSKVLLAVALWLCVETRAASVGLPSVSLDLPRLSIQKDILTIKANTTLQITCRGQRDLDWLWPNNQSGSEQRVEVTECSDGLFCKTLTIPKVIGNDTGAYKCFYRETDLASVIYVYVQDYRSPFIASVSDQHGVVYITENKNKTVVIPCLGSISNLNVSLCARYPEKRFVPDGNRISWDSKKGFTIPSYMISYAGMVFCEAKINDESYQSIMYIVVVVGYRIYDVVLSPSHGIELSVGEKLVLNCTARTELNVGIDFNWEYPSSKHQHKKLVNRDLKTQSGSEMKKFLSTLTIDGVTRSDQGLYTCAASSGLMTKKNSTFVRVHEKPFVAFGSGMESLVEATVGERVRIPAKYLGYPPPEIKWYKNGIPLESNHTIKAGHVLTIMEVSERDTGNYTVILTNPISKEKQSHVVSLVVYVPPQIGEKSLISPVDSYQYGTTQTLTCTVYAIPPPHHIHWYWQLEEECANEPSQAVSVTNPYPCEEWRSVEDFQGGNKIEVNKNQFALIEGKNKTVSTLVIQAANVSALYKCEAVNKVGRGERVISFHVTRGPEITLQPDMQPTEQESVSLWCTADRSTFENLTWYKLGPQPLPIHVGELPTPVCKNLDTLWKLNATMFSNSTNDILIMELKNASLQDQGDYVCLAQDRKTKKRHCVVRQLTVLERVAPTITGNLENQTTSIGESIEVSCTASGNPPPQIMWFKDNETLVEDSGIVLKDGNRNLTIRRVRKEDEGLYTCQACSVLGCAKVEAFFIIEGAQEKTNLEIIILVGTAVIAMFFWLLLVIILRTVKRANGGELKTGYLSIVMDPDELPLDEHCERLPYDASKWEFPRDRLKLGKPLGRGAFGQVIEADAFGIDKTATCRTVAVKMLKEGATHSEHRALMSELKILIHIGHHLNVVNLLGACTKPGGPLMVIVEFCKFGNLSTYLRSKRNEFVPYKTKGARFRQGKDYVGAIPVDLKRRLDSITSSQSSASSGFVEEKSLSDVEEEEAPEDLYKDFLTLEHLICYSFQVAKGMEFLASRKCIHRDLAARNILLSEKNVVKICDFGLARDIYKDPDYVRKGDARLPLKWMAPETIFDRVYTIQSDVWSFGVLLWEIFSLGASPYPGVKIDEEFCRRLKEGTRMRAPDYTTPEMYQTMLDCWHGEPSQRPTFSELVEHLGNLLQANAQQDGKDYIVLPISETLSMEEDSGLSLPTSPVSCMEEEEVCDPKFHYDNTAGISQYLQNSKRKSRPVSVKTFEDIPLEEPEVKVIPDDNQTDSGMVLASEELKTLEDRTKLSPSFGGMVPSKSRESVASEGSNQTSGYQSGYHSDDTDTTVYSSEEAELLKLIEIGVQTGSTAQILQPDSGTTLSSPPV

Mus musculus [7] = assay: Tmax in mouse at 35 mg/kg, po administered as single dose by LC/MS/MS analysis; assay type: ADME, organism-based; conditions: in vivo
Mus musculus [8] = assay: Half life in mouse at 20 mg/kg, iv or 35 mg/kg, po administered as single dose by LC/MS/MS analysis; assay type: ADME, organism-based; conditions: in vivo
Mus musculus [9] = assay: AUC (0 to infinity) in mouse at 20 mg/kg, iv or 35 mg/kg, po administered as single dose by LC/MS/MS analysis; assay type: ADME, organism-based; conditions: in vivo
[10] = Mean residence time (0 to infinity) in mouse at 20 mg/kg, iv or 35 mg/kg, po administered as single dose by LC/MS/MS analysis; assay type: ADME, organism-based; conditions: in vivo
Mus musculus [11] = assay: Toxicity in Balb/c mouse xenografted with human MKN45 cells assessed as change in body weight at 50 mg/kg, po bid for 24 days; assay type: organism-based, MKN-45; conditions: in vivo, 576 h
Mus musculus [12] = assay: Cmax in mouse at 35 mg/kg, po administered as single dose measured at 0.25 to 24 hrs by LC/MS/MS analysis; assay type: ADME, organism-based; set-up: dose 35 mg/kg, route oral; conditions: in vivo
Mus musculus [13] = assay: Toxicity in Balb/c mouse xenografted with human HT-29 cells assessed as change in body weight at 50 mg/kg, po bid for 27 days; assay type: organism-based; conditions: in vivo, 648 h
[14] = Potency index, ratio of IC50 for foretinib to IC50 for test compound for cytotoxicity against human MKN45 cells; assay type: functional, MKN-45
[15] = Antitumor activity against human MKN45 cells xenografted in Balb/c mouse assessed as tumor growth inhibition at 50 mg/kg, po bid for 24 days relative to control; assay type: functional, MKN-45; set-up: scale not given: the % may be the effect or the level left
HT-29 [16] = assay: Potency index, ratio of IC50 for foretinib to IC50 for test compound for cytotoxicity against human HT-29 cells; assay type: functional
HT-29 [17] = assay: Antitumor activity against human HT-29 cells xenografted in Balb/c mouse assessed as tumor growth inhibition at 50 mg/kg, po bid for 27 days relative to control; assay type: functional; set-up: scale not given: the % may be the effect or the level left
[18] = target: Platelet-derived growth factor receptor alpha (Homo sapiens, UniProt P16234); assay: Inhibition of PDGFR-alpha (unknown origin) using poly(glu,Tyr)4:1 as substrate incubated for 30 mins by homogeneous time-resolved fluorescence assay
[19] = target: Hepatocyte growth factor receptor (Homo sapiens, UniProt P08581); assay: Inhibition of c-Met kinase (unknown origin) using poly(glu,Tyr)4:1 as substrate incubated for 30 mins by homogeneous time-resolved fluorescence assay
[20] = Apparent volume of distribution during terminal phase in mouse at 35 mg/kg, po administered as single dose measured at 0.25 to 24 hrs by LC/MS/MS analysis; assay type: ADME, organism-based; conditions: in vivo, read-out: Vz/F
[21] = target: T1, Receptor-type tyrosine-protein kinase FLT3 (Homo sapiens, UniProt P36888); assay: Inhibition of Flt-3 (unknown origin) using poly(glu,Tyr)4:1 as substrate incubated for 30 mins by homogeneous time-resolved fluorescence assay
T1 sequence (P36888 whole entry): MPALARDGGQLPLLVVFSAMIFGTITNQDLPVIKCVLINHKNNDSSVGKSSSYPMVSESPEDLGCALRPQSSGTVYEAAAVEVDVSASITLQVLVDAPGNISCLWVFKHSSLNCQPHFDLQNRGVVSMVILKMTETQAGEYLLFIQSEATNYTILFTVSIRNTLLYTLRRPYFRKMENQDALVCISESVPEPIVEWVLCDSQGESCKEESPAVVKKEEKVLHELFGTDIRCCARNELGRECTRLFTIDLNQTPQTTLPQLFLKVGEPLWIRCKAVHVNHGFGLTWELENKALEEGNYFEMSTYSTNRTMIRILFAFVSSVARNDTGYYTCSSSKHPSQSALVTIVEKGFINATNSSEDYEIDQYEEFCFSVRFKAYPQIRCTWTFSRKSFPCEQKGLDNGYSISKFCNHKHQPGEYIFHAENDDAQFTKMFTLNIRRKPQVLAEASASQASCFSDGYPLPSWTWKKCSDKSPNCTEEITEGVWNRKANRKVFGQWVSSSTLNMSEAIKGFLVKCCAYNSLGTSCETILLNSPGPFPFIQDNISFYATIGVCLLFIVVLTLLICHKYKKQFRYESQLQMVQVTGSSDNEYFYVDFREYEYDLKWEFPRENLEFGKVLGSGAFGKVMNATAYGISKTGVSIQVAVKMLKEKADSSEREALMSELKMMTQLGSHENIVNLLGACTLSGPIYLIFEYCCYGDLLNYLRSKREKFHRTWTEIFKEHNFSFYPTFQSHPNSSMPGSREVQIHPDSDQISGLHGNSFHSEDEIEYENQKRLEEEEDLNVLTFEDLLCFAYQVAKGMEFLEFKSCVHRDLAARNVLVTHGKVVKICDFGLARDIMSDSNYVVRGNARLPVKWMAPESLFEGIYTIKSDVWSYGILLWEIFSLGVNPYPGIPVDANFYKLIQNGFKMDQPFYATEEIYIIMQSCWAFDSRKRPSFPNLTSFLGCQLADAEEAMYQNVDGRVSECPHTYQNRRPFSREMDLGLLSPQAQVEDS

[22] = target: Mast/stem cell growth factor receptor Kit (Homo sapiens, UniProt P10721); assay: Inhibition of c-kit (unknown origin) using poly(glu,Tyr)4:1 as substrate incubated for 30 mins by homogeneous time-resolved fluorescence assay
Sequence of Mast/stem cell growth factor receptor Kit (P10721 whole entry): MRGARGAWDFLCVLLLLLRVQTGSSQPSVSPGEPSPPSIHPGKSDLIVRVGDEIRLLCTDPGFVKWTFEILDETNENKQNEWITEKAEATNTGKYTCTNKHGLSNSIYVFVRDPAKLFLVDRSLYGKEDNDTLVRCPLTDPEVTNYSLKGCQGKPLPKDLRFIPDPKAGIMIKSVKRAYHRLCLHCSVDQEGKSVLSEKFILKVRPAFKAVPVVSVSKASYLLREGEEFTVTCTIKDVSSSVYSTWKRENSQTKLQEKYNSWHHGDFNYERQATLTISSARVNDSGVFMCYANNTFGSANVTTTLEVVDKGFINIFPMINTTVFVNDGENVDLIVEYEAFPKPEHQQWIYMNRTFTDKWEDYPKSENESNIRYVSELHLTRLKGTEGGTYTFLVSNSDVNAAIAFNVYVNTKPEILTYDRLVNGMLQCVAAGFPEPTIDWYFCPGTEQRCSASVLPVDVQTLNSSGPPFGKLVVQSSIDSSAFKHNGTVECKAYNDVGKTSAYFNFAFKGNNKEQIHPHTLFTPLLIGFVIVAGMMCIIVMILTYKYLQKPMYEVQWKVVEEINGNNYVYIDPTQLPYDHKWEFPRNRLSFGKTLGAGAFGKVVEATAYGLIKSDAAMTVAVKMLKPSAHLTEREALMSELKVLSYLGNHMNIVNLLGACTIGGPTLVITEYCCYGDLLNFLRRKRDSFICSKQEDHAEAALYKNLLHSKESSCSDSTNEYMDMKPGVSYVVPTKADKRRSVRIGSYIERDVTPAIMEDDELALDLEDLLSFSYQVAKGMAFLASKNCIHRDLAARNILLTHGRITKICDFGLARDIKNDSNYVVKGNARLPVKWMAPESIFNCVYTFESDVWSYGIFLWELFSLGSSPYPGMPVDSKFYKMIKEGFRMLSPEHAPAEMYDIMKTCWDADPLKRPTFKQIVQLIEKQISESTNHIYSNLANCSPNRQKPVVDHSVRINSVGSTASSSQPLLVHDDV

A549 [23] = assay: Potency index, ratio of IC50 for foretinib to IC50 for test compound for cytotoxicity against human A549 cells; assay type: functional
Mus musculus [24] = assay: Apparent oral clearance in mouse at 35 mg/kg, po administered as single dose measured at 0.25 to 24 hrs by LC/MS/MS analysis; assay type: ADME, organism-based; conditions: in vivo

Sequence of Epidermal growth factor receptor (P00533 whole entry): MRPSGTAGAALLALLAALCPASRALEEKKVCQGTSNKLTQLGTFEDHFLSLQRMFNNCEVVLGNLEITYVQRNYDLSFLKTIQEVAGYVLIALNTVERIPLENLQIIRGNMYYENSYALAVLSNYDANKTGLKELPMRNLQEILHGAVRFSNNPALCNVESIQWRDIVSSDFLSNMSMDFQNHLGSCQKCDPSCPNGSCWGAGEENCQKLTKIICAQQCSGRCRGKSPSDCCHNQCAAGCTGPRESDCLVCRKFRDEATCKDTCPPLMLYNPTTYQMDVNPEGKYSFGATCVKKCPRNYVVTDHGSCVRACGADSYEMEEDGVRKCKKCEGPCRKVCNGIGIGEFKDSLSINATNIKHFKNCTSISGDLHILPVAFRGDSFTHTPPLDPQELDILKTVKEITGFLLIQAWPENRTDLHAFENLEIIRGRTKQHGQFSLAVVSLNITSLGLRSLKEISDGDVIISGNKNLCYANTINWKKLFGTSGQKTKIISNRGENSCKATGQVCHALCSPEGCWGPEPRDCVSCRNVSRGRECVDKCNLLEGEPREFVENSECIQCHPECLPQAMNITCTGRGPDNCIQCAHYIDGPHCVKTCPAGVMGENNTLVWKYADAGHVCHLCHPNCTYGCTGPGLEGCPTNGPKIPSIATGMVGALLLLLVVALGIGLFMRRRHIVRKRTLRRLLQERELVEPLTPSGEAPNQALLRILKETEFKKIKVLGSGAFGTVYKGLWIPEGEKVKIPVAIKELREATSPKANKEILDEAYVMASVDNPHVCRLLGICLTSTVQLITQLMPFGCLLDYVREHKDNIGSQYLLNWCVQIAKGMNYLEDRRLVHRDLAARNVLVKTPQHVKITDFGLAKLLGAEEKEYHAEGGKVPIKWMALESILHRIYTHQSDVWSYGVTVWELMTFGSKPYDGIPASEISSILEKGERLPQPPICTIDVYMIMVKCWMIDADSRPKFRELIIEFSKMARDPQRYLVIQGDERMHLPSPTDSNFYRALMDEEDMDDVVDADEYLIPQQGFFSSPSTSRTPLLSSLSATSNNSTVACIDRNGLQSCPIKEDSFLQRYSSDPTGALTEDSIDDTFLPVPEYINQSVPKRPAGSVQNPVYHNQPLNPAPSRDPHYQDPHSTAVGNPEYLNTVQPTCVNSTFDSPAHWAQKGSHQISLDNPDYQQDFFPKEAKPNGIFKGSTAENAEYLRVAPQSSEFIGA

| Tmax (Mus musculus [7]) [h] | t1/2 (Mus musculus [8]) [h] | AUC (Mus musculus [9]) [ng·h/mL] | MRT inf [10] [h] | Cmax (Mus musculus [12]) [ng/mL] | Vd/F [20] [L/kg] | Structure (SMILES) | IC50 (HT-29 [1]) [nM] | IC50 [3] [nM] | IC50 (MDA-MB-231) [nM] | IC50 (A549 [5]) [nM] | further results |
| --- | --- | --- | --- | --- | --- | --- | --- | --- | --- | --- | --- |
| 6 | 13.75 | 16500 | 23.4 | 680 | 43.9 | C=CCc1cccc(/C=N/NC(=O)Nc2ccc(Oc3ccnc4cc(OCCCN5CCCCC5)c(OC)cc34)c(F)c2)c1O | 27 | 39 | 440 | 11 | IC50 [2]: > 100000 nM; IC50 [4]: 14.5 nM; IC50 (PBL): 107000 nM; IC50 [6]: 210 nM; Activity (Mus musculus [11]): Non-toxic; Activity (Mus musculus [13]): Non-toxic; Ratio IC50 [14]: 1.7; Activity [15]: 70.18%; Ratio IC50 (HT-29 [16]): 9.6; Activity (HT-29 [17]): 65.86%; IC50 [18]: 212 nM; IC50 [19]: 1.54 nM; IC50 [21]: 367 nM; IC50 [22]: 162 nM; Ratio IC50 (A549 [23]): 15.4 |
| 0.75 | 3.3 | 910 | 13.2 | 78 | 371 | COc1cc2c(Oc3ccc(NC(=O)N/N=C/c4ccc(F)cc4Cl)cc3F)ccnc2cc1OCCCN1CCCCC1 | 260 | 270 | 790 | 130 | CL/F (Mus musculus [24]): 1334 mL/min/kg |
